Assay results published in patent US20230147718A1, “COMPOSITION FOR CANCER PREVENTION OR TREATMENT, CONTAINING, AS ACTIVE INGREDIENT, SALVIANOLIC ACID B OR TANSHINONE I” (GJMEDI, priority 2020, published 2023).
pKd: −log10 of the molar value.

Key:
[1] = test system: AsPC-1 (pancreatic cancer); assay: MTT cell viability assay; type: cell-based, human; conditions: AsPC-1, cultured 24 and 48 hours, increasing concentrations; time- and dose-dependent
Protocol: (§1) To verify the efficacy of salvianolic acid B (Sigma-Aldrich) and tanshinone I (Sigma-Aldrich) on tumor cells, MTT (3-(4,5-dimethylthiazol-2-yl)-2,5-diphenyltetrazolium bromide) assay was applied to measure cell viability.
(§2) For the experiment, AsPC-1 (pancreatic cancer), HCT116 (colon cancer), and NCI-H460 (lung cancer) were used as tumor cell lines, and each tumor cell was dispensed by 1×10^3 cells/well (100 μL). After dispensing, all cells were attached to the wells for 24 hours. […] After culturing the drug-treated tumor cells for 24 and 48 hours, MTT at a concentration of 5 mg/mL was added to each tumor cell, followed by culture for 90 minutes again. Finally, the optical density (OD) of the tumor cells was measured at 540 nm using a microplate reader (Molecular Devices, USA). The analysis was performed three or more times.

HCT116 (colon cancer) = assay: MTT cell viability assay; type: cell-based, human; conditions: HCT116, cultured 24 and 48 hours, increasing concentrations; time- and dose-dependent
Protocol: as §1, §2

NCI-H460 (lung cancer) = assay: MTT cell viability assay; type: cell-based, human; conditions: NCI-H460, cultured 24 and 48 hours, increasing concentrations; time- and dose-dependent
Protocol: as §1, §2

KRAS G12V [2] = target: T1, KRAS G12V (Homo sapiens, UniProt P01116, G12V); assay: Isothermal titration calorimetry (ITC); conditions: 25° C., read-out: binding affinity KD
T1 sequence (P01116 1-188 isoform P01116-2 G12V): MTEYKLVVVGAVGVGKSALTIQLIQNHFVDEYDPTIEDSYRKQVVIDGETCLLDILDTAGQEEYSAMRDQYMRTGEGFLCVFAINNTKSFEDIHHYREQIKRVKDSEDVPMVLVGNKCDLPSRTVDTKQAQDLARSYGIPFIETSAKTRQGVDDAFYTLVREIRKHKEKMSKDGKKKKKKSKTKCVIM
Protocol: In order to identify the affinity of salvianolic acid B or tanshinone I for the KRAS mutant KRAS G12V protein, isothermal titration calorimetry (ITC) was used. KRAS G12V protein was dialyzed using buffer [20 mM Tris-HCl (pH 7.4), 100 mM NaCl, and 2 mM MgCl2]. Next, salvianolic acid B or tanshinone I was dissolved using the same buffer, and then the prepared KRAS G12V protein and salvianolic acid B or tanshinone I were injected into an isothermal calorimeter to perform isothermal titration thermometry. Titration measurement was performed at 25° C., involved with 20 injections at an interval of 200 seconds while salvianolic acid B or tanshinone I was stirred at 1,000 rpm. ΔS was calculated from standard thermodynamic equations using the calculated K and ΔH values. Isothermal titration thermometric analysis was performed using a MicroCal AutoITC200 (GE Healthcare, Sweden), and data were analyzed using the Origin 7.0 program.

KRAS G12V [3] = target: T1, KRAS G12V; assay: Guanine nucleotide binding assay; design: made in house; host or cells: E. coli BL21 (DE3); conditions: in the presence of compound, 37° C., liquid scintillation counting
Protocol: The recombinant gene KRAS G12V was inserted into E. coli BL21 (DE3) for expression. The overexpressed protein was purified using affinity chromatography and gel filtration chromatography. Purified KRAS G12V protein was bound to Ni-NTA beads using binding buffer [50 mM Hepes (pH 7.5), 100 mM NaCl, 2 mM MgCl2, 1 mM EDTA, and 1 mM DTT] at 4° C. Ni-NTA beads bound with KRAS G12V proteins were washed with binding buffer and then reacted with radioisotope [α-^32P] GTP (2,500 cpm/pmol), GTP, and salvianolic acid B or tanshinone I at 37° C. The beads were then washed with wash buffer [20 mM Tris-HCl (pH 7.4), 100 mM NaCl, and 2 mM MgCl2]. 200 mM imidazole was used to elute the bead-bound KRAS G12V protein, and radioactive nucleotides were quantified by liquid scintillation counting.

| Structure (SMILES) | cell viability [1] | cell viability (HCT116 (colon cancer)) | cell viability (NCI-H460 (lung cancer)) | pKd (KRAS G12V [2]) | activity of radioisotope [α-32P] GTP binding of KRAS G12V (KRAS G12V [3]) |
| --- | --- | --- | --- | --- | --- |
| O=C(/C=C/c1ccc(O)c2c1[C@H](C(=O)O[C@H](Cc1ccc(O)c(O)c1)C(=O)O)[C@@H](c1ccc(O)c(O)c1)O2)O[C@H](Cc1ccc(O)c(O)c1)C(=O)O [salvianolic acid B] | decrease in cell viability | decrease in cell viability | decrease in cell viability | 4.49 | decreased |
| Cc1coc2c1C(=O)C(=O)c1c-2ccc2c(C)cccc12 [tanshinone I] | decrease in cell viability | decrease in cell viability | decrease in cell viability | 4.68 | decreased |
